Test results reported in the supplement of paper PMC10627819.

Assays:
S. aureus DSM 20231 [1] = assay: fitness (endpoint OD595 vs no drug) (fraction); higher = more growth
How it was run: (§1)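 Growth medium was TSB, LB Lennox or CY, and plates were kept at 37 °C. Inoculation was at OD595 0.01 in 384-well plates, at 30 µl per well or 55 µl for S. pneumoniae. OD595 was monitored every 30 min for 14 h and background-subtracted using the first reading. Fitness is the optical density on entering stationary phase divided by the robust mean of no-drug controls, with values capped at 1.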

S. aureus Newman [2] = assay: as above
How it was run: as §1

B. subtilis 168 [3] = assay: as above
How it was run: as §1

S. aureus DSM 20231 [4] = assay: Bliss interaction score (quartile over a dose matrix) (fitness difference); higher = more antagonism (negative = synergy)
How it was run: (§2)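 The Bliss score is observed minus expected fitness, where expected fitness is the product of the single-drug fitness values inferred from the combination data. Fitness is the OD595 at the onset of stationary phase over the plate's robust no-drug mean, capped at 1. Scores are summarised by quartiles over technical, biological and donor/recipient replicates.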

S. aureus Newman [5] = assay: as above
How it was run: as §2

S. pneumoniae D39V = assay: as above
How it was run: as §2

B. subtilis 168 [6] = assay: as above
How it was run: as §2

[7] = first compound 0.25 µg/mL, partner 0.125 µg/mL
[8] = first compound 0.5 µg/mL, partner 0.0312 µg/mL
[9] = first compound 0.5 µg/mL, partner 0.0625 µg/mL
[10] = first compound 0.5 µg/mL, partner 0.125 µg/mL
[11] = first compound 0.125 µg/mL, partner 171 µg/mL
[12] = first compound 0.125 µg/mL, partner 342 µg/mL
[13] = first compound 0.5 µg/mL, partner 85.5 µg/mL
[14] = first compound 0.5 µg/mL, partner 342 µg/mL
[15] = first compound 0.25 µg/mL, partner 85.5 µg/mL
[16] = first compound 0.25 µg/mL, partner 171 µg/mL
[17] = first compound 0.25 µg/mL, partner 342 µg/mL
[18] = first compound 0.125 µg/mL, partner 1.25 µg/mL
[19] = first compound 0.125 µg/mL, partner 2.5 µg/mL
[20] = first compound 0.25 µg/mL, partner 1.25 µg/mL
[21] = first compound 0.25 µg/mL, partner 2.5 µg/mL
[22] = first compound 0.25 µg/mL, partner 5 µg/mL
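For Bliss interaction score (quartile over a dose matrix) in this document: first quartile when negative (synergy) and third quartile when positive (antagonism).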
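For fitness (endpoint OD595 vs no drug) in this document: OD595 on entry to stationary phase over no-drug wells; at most 1.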

With `CC[C@H]1OC(=O)[C@H](C)[C@@H](O[C@H]2C[C@@](C)(OC)[C@@H](O)[C@H](C)O2)[C@H](C)[C@@H](O[C@@H]2O[C@H](C)C[C@H](N(C)C)[C@H]2O)[C@](C)(O)C[C@@H](C)CN(C)[C@H](C)[C@@H](O)[C@]1(C)O` [Azithromycin] + CCC[C@@H]1C[C@@H](C(=O)N[C@@H]([C@H]2O[C@H](SC)[C@H](O)[C@@H](O)[C@H]2O)[C@H](C)Cl)N(C)C1 [Clindamycin] the fitness (S. aureus DSM 20231 [1]; first compound 0.125 µg/mL, partner 0.125 µg/mL) was 0.0728, the fitness (S. aureus DSM 20231 [1]; [7]) was 0.0466 and the fitness (S. aureus DSM 20231 [1]; [8]) was 0.142. It also gave a fitness (S. aureus DSM 20231 [1]; [9]) of 0.0702, a fitness (S. aureus DSM 20231 [1]; [10]) of 0.0384 and a fitness (S. aureus Newman [2]; first compound 0.125 µg/mL, partner 0.0312 µg/mL) of 0.693. The fitness (S. aureus Newman [2]; [7]) was 0.113, the fitness (S. aureus Newman [2]; [8]) was 0.481 and the fitness (S. aureus Newman [2]; [10]) was 0.0923. It also gave a fitness (B. subtilis 168 [3]; first compound 0.25 µg/mL, partner 0.0625 µg/mL) of 0.632, a fitness (B. subtilis 168 [3]; [7]) of 0.388 and a fitness (B. subtilis 168 [3]; first compound 0.25 µg/mL, partner 0.25 µg/mL) of 0.367. For the same compound, the fitness (B. subtilis 168 [3]; first compound 0.5 µg/mL, partner 0.0039 µg/mL, one replicate) was 0.945, the fitness (B. subtilis 168 [3]; first compound 0.5 µg/mL, partner 0.0078 µg/mL, one replicate) was 0.84 and the fitness (B. subtilis 168 [3]; first compound 0.5 µg/mL, partner 0.0156 µg/mL, one replicate) was 0.776. It also gave a fitness (B. subtilis 168 [3]; [9]) of 0.554, a fitness (B. subtilis 168 [3]; [10]) of 0.379 and a fitness (B. subtilis 168 [3]; first compound 0.5 µg/mL, partner 0.25 µg/mL) of 0.299. It also gave a fitness (B. subtilis 168 [3]; first compound 1 µg/mL, partner 0.0039 µg/mL, one replicate) of 0.922, a fitness (B. subtilis 168 [3]; first compound 1 µg/mL, partner 0.0078 µg/mL, one replicate) of 0.776 and a fitness (B. subtilis 168 [3]; first compound 1 µg/mL, partner 0.0156 µg/mL, one replicate) of 0.715. For the same compound, the fitness (B. subtilis 168 [3]; first compound 1 µg/mL, partner 0.25 µg/mL) was 0.0793, the fitness (B. subtilis 168 [3]; first compound 2 µg/mL, partner 0.0039 µg/mL, one replicate) was 0.516 and the fitness (B. subtilis 168 [3]; first compound 2 µg/mL, partner 0.0078 µg/mL, one replicate) was 0.186. For the same compound, the fitness (B. subtilis 168 [3]; first compound 2 µg/mL, partner 0.0156 µg/mL, one replicate) was 0.23, the Bliss interaction score (S. aureus DSM 20231 [4]) was -0.0395 and the Bliss interaction score (S. aureus Newman [5]) was -0.0621. The Bliss interaction score (S. pneumoniae D39V) was 0.0737 and the Bliss interaction score (B. subtilis 168 [6]) was 0.109.
`CC[C@H]1OC(=O)[C@H](C)[C@@H](O[C@H]2C[C@@](C)(OC)[C@@H](O)[C@H](C)O2)[C@H](C)[C@@H](O[C@@H]2O[C@H](C)C[C@H](N(C)C)[C@H]2O)[C@](C)(O)C[C@@H](C)CN(C)[C@H](C)[C@@H](O)[C@]1(C)O` [Azithromycin] + CCN(CC)CCOC(=O)c1ccc(N)cc1 [Procaine] showed a fitness (S. aureus DSM 20231 [1]; [11]) of 0.905, a fitness (S. aureus DSM 20231 [1]; [12]) of 0.912 and a fitness (S. aureus DSM 20231 [1]; [13]) of 0.441. It also gave a fitness (S. aureus DSM 20231 [1]; [14]) of 0.426, a fitness (S. aureus Newman [2]; first compound 0.125 µg/mL, partner 85.5 µg/mL) of 0.871 and a fitness (S. aureus Newman [2]; [11]) of 0.864. The fitness (S. aureus Newman [2]; [12]) was 0.843, the fitness (S. aureus Newman [2]; [15]) was 0.803 and the fitness (S. aureus Newman [2]; [16]) was 0.877. The fitness (S. aureus Newman [2]; [17]) was 0.779, the fitness (S. aureus Newman [2]; [13]) was 0.408 and the fitness (S. aureus Newman [2]; [14]) was 0.401. The fitness (B. subtilis 168 [3]; [15]) was 0.867, the fitness (B. subtilis 168 [3]; [16]) was 0.9 and the fitness (B. subtilis 168 [3]; [17]) was 0.861. For the same compound, the fitness (B. subtilis 168 [3]; [13]) was 0.777, the fitness (B. subtilis 168 [3]; first compound 0.5 µg/mL, partner 171 µg/mL) was 0.778 and the fitness (B. subtilis 168 [3]; [14]) was 0.787. For the same compound, the Bliss interaction score (S. aureus DSM 20231 [4]) was -0.0967, the Bliss interaction score (S. aureus Newman [5]) was -0.0635 and the Bliss interaction score (S. pneumoniae D39V) was 0.0533. It also gave a Bliss interaction score (B. subtilis 168 [6]) of -0.0562.
Work on `CC[C@H]1OC(=O)[C@H](C)[C@@H](O[C@H]2C[C@@](C)(OC)[C@@H](O)[C@H](C)O2)[C@H](C)[C@@H](O[C@@H]2O[C@H](C)C[C@H](N(C)C)[C@H]2O)[C@](C)(O)C[C@@H](C)CN(C)[C@H](C)[C@@H](O)[C@]1(C)O` [Azithromycin] + CN1C2=CC=CC=C2N=C3C1=CC=CC3=O [Pyocyanin] yielded a fitness (S. aureus DSM 20231 [1]; [18]) of 0.851, a fitness (S. aureus DSM 20231 [1]; [19]) of 0.789 and a fitness (S. aureus DSM 20231 [1]; first compound 0.125 µg/mL, partner 5 µg/mL) of 0.694. The fitness (S. aureus DSM 20231 [1]; [20]) was 0.797, the fitness (S. aureus DSM 20231 [1]; [21]) was 0.8 and the fitness (S. aureus DSM 20231 [1]; [22]) was 0.666. It also gave a fitness (S. aureus Newman [2]; [18]) of 0.865, a fitness (S. aureus Newman [2]; [19]) of 0.788 and a fitness (S. aureus Newman [2]; [20]) of 0.856. For the same compound, the fitness (S. aureus Newman [2]; [21]) was 0.759, the fitness (S. aureus Newman [2]; first compound 0.5 µg/mL, partner 5 µg/mL) was 0.21 and the fitness (B. subtilis 168 [3]; [20]) was 0.838. For the same compound, the fitness (B. subtilis 168 [3]; [21]) was 0.792, the fitness (B. subtilis 168 [3]; [22]) was 0.648 and the fitness (B. subtilis 168 [3]; first compound 0.5 µg/mL, partner 2.5 µg/mL) was 0.631. The Bliss interaction score (S. aureus DSM 20231 [4]) was -0.0596, the Bliss interaction score (S. aureus Newman [5]) was 0.0847 and the Bliss interaction score (S. pneumoniae D39V) was -0.0827. For the same compound, the Bliss interaction score (B. subtilis 168 [6]) was -0.0732.
